Test: xn = mol fraction of the nth substance listed
Conditions: 101 kPa, Liquid; for speed of sound: Sing-around technique in a fixed-path interferometer; for mass density: Vibrating tube method

CCC(C)Cl (stereo unspecified) [2-chlorobutane] + CCCCCC
Conditions | mass density, 283.15 K [kg/m3] | mass density, 298.15 K [kg/m3] | mass density, 313.15 K [kg/m3] | speed of sound, 283.15 K [m/s] | speed of sound, 298.15 K [m/s] | speed of sound, 313.15 K [m/s]
x2 = 0 | 884.34 | 867.474 | 850.266 | 1127.7 | 1066.2 | 1005.3
x2 = 0.0509 | 870.642 | 853.976 | 836.967 | 1126.4 | 1064.5 | 1003.3
x2 = 0.1002 | 857.772 | 841.229 | 824.438 | 1125.2 | 1063.1 | 1001.6
x2 = 0.1802 | 837.449 | 821.198 | 804.693 | 1124 | 1061.4 | 999.26
x2 = 0.3029 | 807.817 | 791.981 | 775.929 | 1123.1 | 1059.7 | 996.75
x2 = 0.4045 | 784.524 | 769.021 | 753.339 | 1123.4 | 1059.3 | 995.71
x2 = 0.4991 | 763.875 | 748.682 | 733.339 | 1124.5 | 1059.8 | 995.56
x2 = 0.5974 | 743.353 | 728.495 | 713.496 | 1126.5 | 1061.1 | 996.3
x2 = 0.6992 | 723.059 | 708.519 | 693.898 | 1129.5 | 1063.4 | 998
x2 = 0.7996 | 704.031 | 689.807 | 675.523 | 1133.3 | 1066.8 | 1000.8
x2 = 0.8981 | 686.218 | 672.305 | 658.349 | 1138.3 | 1071.1 | 1004.5
x2 = 0.9477 | 677.555 | 663.793 | 650.005 | 1141.4 | 1073.7 | 1006.9

CCC(C)Cl (stereo unspecified) [2-chlorobutane] + CCCCCCC
mass density [kg/m3]
Conditions | 283.15 K | 298.15 K | 313.15 K
x2 = 0 | 884.34 | 867.474 | 850.266
x2 = 0.0506 | 870.755 | 854.132 | 837.236
x2 = 0.0989 | 858.319 | 841.994 | 825.335
x2 = 0.2012 | 833.412 | 817.61 | 801.474
x2 = 0.3016 | 810.786 | 795.463 | 779.843
x2 = 0.3997 | 790.254 | 775.401 | 760.214
x2 = 0.4984 | 771.15 | 756.698 | 741.962
x2 = 0.5994 | 752.976 | 738.95 | 724.63
x2 = 0.6994 | 736.272 | 722.581 | 708.679
x2 = 0.7996 | 720.631 | 707.328 | 693.773
x2 = 0.9006 | 705.927 | 692.97 | 679.768
x2 = 0.9503 | 699.08 | 686.282 | 673.245

CCCCCCC [heptane] + CC(C)(C)Cl
x1 = 1
Conditions | mass density [kg/m3] | speed of sound [m/s]
283.15 K | 692.422 | 1195.7
298.15 K | 679.783 | 1131
313.15 K | 666.908 | 1067.2

CCCCCCC [heptane] + CC(C)CCl
x1 = 1
Conditions | mass density [kg/m3] | speed of sound [m/s]
283.15 K | 692.422 | 1195.7
298.15 K | 679.783 | 1131
313.15 K | 666.908 | 1067.2

CCCCCCC [heptane] + CCC(C)Cl
Conditions | mass density, 283.15 K [kg/m3] | mass density, 298.15 K [kg/m3] | mass density, 313.15 K [kg/m3] | speed of sound, 313.15 K [m/s]
x1 = 1 | 692.422 | 679.783 | 666.908 | –
x2 = 0 | – | – | – | 1005.3

CCCCCCC [heptane] + CCCCCl
x1 = 1
Conditions | mass density [kg/m3]
283.15 K | 692.422
298.15 K | 679.783
313.15 K | 666.908

CCCCCC [hexane] + CC(C)(C)Cl
x1 = 1
Conditions | mass density [kg/m3] | speed of sound [m/s]
283.15 K | 668.609 | 1145.1
298.15 K | 654.96 | 1077
313.15 K | 641.39 | 1009.9

CCCCCC [hexane] + CC(C)CCl
x1 = 1
Conditions | mass density [kg/m3] | speed of sound [m/s]
283.15 K | 668.609 | 1145.1
298.15 K | 654.96 | 1077
313.15 K | 641.39 | 1009.9

CCCCCC [hexane] + CCC(C)Cl
x1 = 1
Conditions | mass density [kg/m3] | speed of sound [m/s]
283.15 K | 668.609 | 1145.1
298.15 K | 654.96 | 1077
313.15 K | 641.39 | 1009.9

CCCCCC [hexane] + CCCCCl
x1 = 1
Conditions | mass density [kg/m3] | speed of sound [m/s]
283.15 K | 668.609 | 1145.1
298.15 K | 654.96 | 1077
313.15 K | 641.39 | 1009.9
